How the values were obtained:
Prothrombin = Prothrombin (Homo sapiens, UniProt P00734); assay: Inhibition of thrombin
[1] = Selectivity ratio of IC50 for trypsin to IC50 for thrombin
[2] = Inhibition of trypsin

| Structure (SMILES) | IC50 (Prothrombin) [nM] | Ratio IC50 [1] | IC50 [2] [nM] |
| --- | --- | --- | --- |
| Cc1ccn(NS(=O)(=O)Cc2ccccc2)c(=O)c1CC(=O)NCc1ccc(C(=N)N)cc1 | 1920 | 7.9 | 15200 |
| CCCc1ccc(S(=O)(=O)Nn2ccc(C)c(CC(=O)NCc3nccc(C)c3F)c2=O)cc1 | > 44400 | – | – |
| Cc1ccn(NCCc2ccccc2)c(=O)c1CC(=O)NCc1ccc(C(=N)N)cc1 | 91 | 16 | 1420 |
| COc1cc(Cl)ccc1S(=O)(=O)Nn1ccc(C)c(CC(=O)NCc2ccc(C(=N)N)cc2)c1=O | 307 | 13 | 4130 |
| Cc1ccn(/N=C/Cc2cccc(C(F)(F)F)c2)c(=O)c1CC(=O)NCc1ccc(N)nc1 | 2710 | > 16 | > 44400 |
| Cc1ccnc(CNC(=O)Cc2c(C)ccn(NCCc3cc(Cl)ccc3F)c2=O)c1F | > 44400 | – | – |
| Cc1ccccc1CCNn1ccc(C)c(CC(=O)NCc2ccc(C(=N)N)cc2)c1=O | 23 | 42 | 963 |
| COc1cccc(S(=O)(=O)Nn2ccc(C)c(CC(=O)NCc3ccc(C(=N)N)cc3)c2=O)c1 | 1050 | 15 | 15600 |
| COc1ccc(S(=O)(=O)Nn2ccc(C)c(CC(=O)NCc3ccc(N)nc3)c2=O)c(OC)c1 | > 44400 | – | > 4400 |
| Cc1ccn(NCS(=O)(=O)c2ccc(Cl)cc2)c(=O)c1CC(=O)NCc1ccnc(N)c1 | > 44400 | – | – |
| Cc1ccnc(CNC(=O)Cc2c(C)ccn(NS(=O)(=O)c3c(C)cccc3Cl)c2=O)c1F | > 44400 | – | > 44400 |
| Cc1ccnc(CNC(=O)Cc2c(C)ccn(NS(=O)(=O)c3ccccc3S(C)(=O)=O)c2=O)c1F | > 44400 | – | – |
| Cc1ccc(C)c(CCNn2ccc(C)c(CC(=O)NCc3ccc(C(=N)N)cc3)c2=O)c1 | – | 23 | 2140 |

Other lines, results leading:

| IC50 (Prothrombin) [nM] | Ratio IC50 [1] | IC50 [2] [nM] | Structure (SMILES) |
| --- | --- | --- | --- |
| 885 | 12 | 10300 | Cc1ccn(NS(=O)(=O)c2ccc(Cl)c(Cl)c2)c(=O)c1CC(=O)NCc1ccc(C(=N)N)cc1 |
| 578 | 12 | 7130 | Cc1ccc(C)c(S(=O)(=O)Nn2ccc(C)c(CC(=O)NCc3ccc(C(=N)N)cc3)c2=O)c1 |
| > 44400 | – | – | Cc1cc(-c2ccc(S(=O)(=O)Nn3ccc(C)c(CC(=O)NCc4ccc(N)nc4)c3=O)cc2)c(C)s1 |
| 1180 | 1.7 | 2020 | COc1cc(C)ccc1S(=O)(=O)Nn1ccc(C)c(CC(=O)NCc2ccc(C(=N)N)cc2)c1=O |
| > 44400 | – | – | CCc1ccc(S(=O)(=O)Nn2ccc(C)c(CC(=O)NCc3ccnc(N)c3)c2=O)cc1 |
| 1240 | 14 | 17100 | Cc1ccn(NS(=O)(=O)c2cccc3ccccc23)c(=O)c1CC(=O)NCc1ccc(C(=N)N)cc1 |
| 2470 | 2.3 | 5770 | Cc1ccn(NS(=O)(=O)c2ccccc2)c(=O)c1CC(=O)NCc1ccc(C(=N)N)cc1 |
| 1850 | 1.8 | 3410 | COc1ccc(S(=O)(=O)Nn2ccc(C)c(CC(=O)NCc3ccc(C(=N)N)cc3)c2=O)cc1 |
